US20230130109A1, “MACROCYCLIC INDOLE DERIVATIVES AS INHIBITORS OF MCL-1” (priority 2020, published 2023)
Like-named read-outs stand apart in the source and are kept apart here.

Tests used:
[1] = molecular target: T1, Myeloid Cell Leukemia 1 (Mcl-1) (Homo sapiens, UniProt Q07820); experiment: biochemical; format: binding
T1 construct: Terbium (Tb) label; means of attachment not described

[2] = system: MOLP-8 human multiple myeloma cell line; experiment: Caspase-Glo 3/7 apoptosis induction assay in MOLP-8 cells; format: cell-based; settings: averaged over all runs on all batches
Source text: MCL-1 is a regulator of apoptosis and is highly over-expressed in tumor cells that escape cell death. The assay evaluates the cellular potency of small-molecule compounds targeting regulators of the apoptosis pathway, primarily MCL-1, Bfl-1, Bcl-2, and other proteins of the Bcl-2 family. Protein-protein inhibitors disrupting the interaction of anti-apoptotic regulators with BH3-domain proteins initiate apoptosis.
The Caspase-Glo® 3/7 Assay is a luminescent assay that measures caspase-3 and −7 activities in purified enzyme preparations or cultures of adherent or suspension cells. The assay provides a proluminescent caspase-3/7 substrate, which contains the tetrapeptide sequence DEVD. This substrate is cleaved to release aminoluciferin, a substrate of luciferase used in the production of light. Addition of the single Caspase-Glo® 3/7 Reagent in an “add-mix-measure” format results in cell lysis, followed by caspase cleavage of the substrate and generation of a “glow-type” luminescent signal.
This assay uses the MOLP-8 human multiple myeloma cell line, which is sensitive to MCL-1 inhibition.
Cell cultures were maintained between 0.2 and 2.0×10^6 cells/mL. The cells were harvested by collection in 50 mL conical tubes. The cells were then pelleted at 500 g for 5 mins before removing supernatant and resuspension in fresh pre-warmed culture medium. The cells were counted and diluted as needed.
The assay reagent was prepared by transferring the buffer solution to the substrate vial and mixing. The solution may be stored for up to 1 week at 4° C. with negligible loss of signal.
Compounds were delivered in assay-ready plates (Proxiplate) and stored at −20° C.
Assays always include 1 reference compound plate containing reference compounds. The plates were spotted with 40 nL of compounds (0.5% DMSO final in cells; serial dilution; […] highest conc. 1/3 dilution, 10 doses, duplicates). The compounds were used at room temperature and 4 μL of pre-warmed media was added to all wells except column 2 and 23. The negative control was prepared by adding 1% DMSO in media. The positive control was prepared by adding the appropriate positive control compound in final concentration of […] in media. The plate was prepared by adding 4 μL negative control to column 23, 4 μL positive control to column 2 and 4 μL cell suspension to all wells in the plate. The plate with cells was then incubated at 37° C. for 2 hours. The assay signal reagent is the Caspase-Glo solution described above, and 8 μL was added to all wells. The plates were then sealed and measured after 30 minutes.
The activity of a test compound was calculated as percent change in apoptosis induction as follows: […]

[3] = Homo sapiens, MOLP-8, 2 h, read-out: MOLP8 Caspase-Glo AC50 (nM) LD value, MOLP-8 cells, 2 hours at 37° C., caspase-3/7 luminescence
[4] = read-out: MOLP8 Caspase-Glo AC50 (nM) LD value, MOLP-8 cells, 2 hours at 37° C., caspase-3/7 luminescence

T1 sequence (Q07820 whole entry): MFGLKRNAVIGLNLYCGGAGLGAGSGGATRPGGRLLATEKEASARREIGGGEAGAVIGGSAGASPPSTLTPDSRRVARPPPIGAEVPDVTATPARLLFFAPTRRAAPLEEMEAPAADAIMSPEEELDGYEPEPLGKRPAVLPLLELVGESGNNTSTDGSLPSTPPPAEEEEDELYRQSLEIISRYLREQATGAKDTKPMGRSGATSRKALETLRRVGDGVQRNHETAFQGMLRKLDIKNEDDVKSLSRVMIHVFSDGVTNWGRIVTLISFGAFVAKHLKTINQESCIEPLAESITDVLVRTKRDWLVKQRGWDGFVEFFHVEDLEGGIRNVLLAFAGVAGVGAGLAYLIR

| SMILES | Ki ([1]; TB-MCL1 Ki (nM)) [nM] | AC50 [2, 3] [nM] | AC50 [2, 4] [nM] | Ki ([1]; read-out: TB-MCL1 Ki) [nM] |
| --- | --- | --- | --- | --- |
| COCCOCCn1nc(C)c2c1C[S+]([O-])Cc1cc(n(C)n1)CCc1cc(c3ccc(F)cc3c1)OCCCn1c(C(=O)O)c(C)c3c-2c(Cl)ccc31 (single isomer, unassigned) [Compound 49] | 0.01 | 141 | – | – |
| COCCOCCn1nc(C)c2c1C[S+]([O-])Cc1cc(n(C)n1)CCc1cc(c3ccc(F)cc3c1)OCCCn1c(C(=O)O)c(C)c3c-2c(Cl)ccc31 (single isomer, unassigned) [Compound 50] | 0.013 | – | 83.6 | – |
| COCCOCCn1nc2c(c1C)-c1c(Cl)ccc3c1c(C)c(C(=O)O)n3CCCOc1cc(cc3c(F)c(F)ccc13)CCc1cc(nn1C)CSC2 (single isomer, unassigned) [Compound 63] | 0.026 | – | 22 | – |
| COCCOCCn1nc(C)c2c1CSCc1cc(n(C)n1)CCc1cc(c3ccc(F)c(F)c3c1)OCCCn1c(C(=O)O)c(C)c3c-2c(Cl)ccc31 (single isomer, unassigned) [Compound 64] | 2.33 | 2100 | – | – |
| COCCOCCn1nc2c(c1C)-c1c(Cl)ccc3c1c(C)c(C(=O)O)n3CCCOc1cc(cc3c(F)c(F)ccc13)CCc1cc(nn1C)CSC2 (single isomer, unassigned) [Compound 65] | 2.98 | – | 1600 | – |
| COCCOCCn1nc(C)c2c1CS(=O)(=O)Cc1cc(n(C)n1)CCc1cc(c3ccc(F)cc3c1)OCCCn1c(C(=O)O)c(C)c3c-2c(Cl)ccc31 (single isomer, unassigned) [Compound 67] | 0.017 | 104 | – | – |
| CNCCn1nc2c(c1C)-c1c(Cl)ccc3c1c(C)c(C(=O)O)n3CCCOc1cc(cc3cc(F)ccc13)CCc1cc(nn1C)CSC2 (single isomer, unassigned) [Compound 68] | 0.008 | 440 | – | – |
| CNCCn1nc(C)c2c1CSCc1cc(n(C)n1)CCc1cc(c3ccc(F)cc3c1)OCCCn1c(C(=O)O)c(C)c3c-2c(Cl)ccc31 (single isomer, unassigned) [Compound 69] | 0.014 | 402 | – | – |
| Cc1c(C(=O)O)n2c3ccc(Cl)c(c13)-c1c(nn(C)c1C)CSCc1cc(n(C)n1)CCc1cc(c3ccccc3c1)OCCC2 [Compound 2] | 0.483 | 1260 | – | – |
| Cc1c(C(=O)O)n2c3ccc(Cl)c(c13)-c1c(nn(C)c1C)CSCc1cc(n(C)n1)CCc1cc(c3c(F)cccc3c1)OCCC2 [Compound 5] | 0.411 | 1290 | – | – |
| Cc1c(C(=O)O)n2c3ccc(Cl)c(c13)-c1c(nn(C)c1C)CS(=O)(=O)Cc1cc(n(C)n1)CCc1cc(c3ccccc3c1)OCCC2 [Compound 6] | 0.059 | – | 931 | – |
| Cc1c(C(=O)O)n2c3ccc(Cl)c(c13)-c1c(nn(C)c1C)CS(=O)(=O)Cc1cc(n(C)n1)CCc1cc(c3ccccc3c1)OCCC2 [Compound 7] | 1.71 | – | 11900 | – |
| Cc1c(C(=O)O)n2c3ccc(Cl)c(c13)-c1c(nn(C)c1C)CN(C)Cc1cc(n(C)n1)CCc1cc(c3ccc(F)cc3c1)OCCC2 [Compound 8] | – | – | 68.8 | – |
| Cc1c(C(=O)O)n2c3ccc(Cl)c(c13)-c1c(nn(C)c1C)CN(C)Cc1cc(n(C)n1)CCc1cc(c3ccc(F)cc3c1)OCCC2 [Compound 9] | – | – | 1170 | – |
| COCCOCCOCCn1nc(C)c2c1CSCc1cc(n(C)n1)CCc1cc(c3ccc(F)cc3c1)OCCCn1c(C(=O)O)c(C)c3c-2c(Cl)ccc31 [Compound 16] | 0.024 | 19.7 | – | – |
| COCCOCCOCCn1nc2c(c1C)-c1c(Cl)ccc3c1c(C)c(C(=O)O)n3CCCOc1cc(cc3cc(F)ccc13)CCc1cc(nn1C)CSC2 [Compound 17] | 0.018 | 46.8 | – | – |

| SMILES | Ki ([1]; TB-MCL1 Ki (nM)) [nM] | AC50 [2, 3] [nM] | AC50 [2, 4] [nM] | Ki ([1]; read-out: TB-MCL1 Ki) [nM] |
| --- | --- | --- | --- | --- |
| COCCn1nc(C)c2c1CSCc1cc(n(C)n1)CCc1cc(c3ccc(F)cc3c1)OCCCn1c(C(=O)O)c(C)c3c-2c(Cl)ccc31 [Compound 18] | 0.025 | 17 | – | – |
| COCCn1nc2c(c1C)-c1c(Cl)ccc3c1c(C)c(C(=O)O)n3CCCOc1cc(cc3cc(F)ccc13)CCc1cc(nn1C)CSC2 [Compound 19] | 0.035 | 20.7 | – | – |
| COCC(COC)n1nc(C)c2c1CSCc1cc(n(C)n1)CCc1cc(c3ccc(F)cc3c1)OCCCn1c(C(=O)O)c(C)c3c-2c(Cl)ccc31 [Compound 20] | 0.026 | 8.8 | – | – |
| COCC(COC)n1nc2c(c1C)-c1c(Cl)ccc3c1c(C)c(C(=O)O)n3CCCOc1cc(cc3cc(F)ccc13)CCc1cc(nn1C)CSC2 [Compound 21] | 0.066 | 49.5 | – | – |
| Cc1nn(CCC2CCOCC2)c2c1-c1c(Cl)ccc3c1c(C)c(C(=O)O)n3CCCOc1cc(cc3cc(F)ccc13)CCc1cc(nn1C)CSC2 [Compound 22] | 0.029 | 20.1 | – | – |
| Cc1c(C(=O)O)n2c3ccc(Cl)c(c13)-c1c(nn(CCC3CCOCC3)c1C)CSCc1cc(n(C)n1)CCc1cc(c3ccc(F)cc3c1)OCCC2 [Compound 23] | 0.016 | 30.6 | – | – |
| Cc1nn(C)c2c1-c1c(Cl)ccc3c1c(C)c(C(=O)O)n3CCCOc1cc(cc3cc(F)ccc13)CCc1cc(nn1C)CSC2 [Compound 28] | 0.028 | 16.7 | – | – |
| COCCOCCn1nc(C)c2c1CSCc1cc(n(C)n1)CCc1cc(c3ccc(F)cc3c1)OCCCn1c(C(=O)O)c(C)c3c-2c(Cl)ccc31 [Compound 31] | – | – | – | 0.015 |
| Cc1nn(CCCN)c2c1-c1c(Cl)ccc3c1c(C)c(C(=O)O)n3CCCOc1cc(cc3cc(F)ccc13)CCc1cc(nn1C)CSC2 [Compound 38] | 0.019 | 540 | – | – |
| COCCn1nc(C)c2c1CSCc1cc(n(C)n1)CCc1cc(c3ccc(Cl)cc3c1)OCCCn1c(C(=O)O)c(C)c3c-2c(Cl)ccc31 [Compound 41] | – | – | 568 | – |
| COCCn1nc(C)c2c1CSCc1cc(n(C)n1)CCc1cc(c3ccc(Cl)cc3c1)OCCCn1c(C(=O)O)c(C)c3c-2c(Cl)ccc31 [Compound 47] | – | – | 2710 | – |
| Cc1nn(CCOCCO)c2c1-c1c(Cl)ccc3c1c(C)c(C(=O)O)n3CCCOc1cc(cc3cc(F)ccc13)CCc1cc(nn1C)CSC2 [Compound 51] | 0.013 | 87.3 | – | – |
| Cc1nn(CCO)c2c1-c1c(Cl)ccc3c1c(C)c(C(=O)O)n3CCCOc1cc(cc3cc(F)ccc13)CCc1cc(nn1C)CSC2 [Compound 52] | – | – | 39.4 | – |
| Cc1nn(CCO)c2c1-c1c(Cl)ccc3c1c(C)c(C(=O)O)n3CCCOc1cc(cc3cc(F)ccc13)CCc1cc(nn1C)CSC2 [Compound 53] | – | – | 1250 | – |
| COCCOCCn1nc(C)c2c1CSCc1cc(n(C)n1)CCc1cc(c3ccc(F)c(F)c3c1)OCCCn1c(C(=O)O)c(C)c3c-2c(Cl)ccc31 [Compound 62] | 0.027 | 11.3 | – | – |
